How the values were obtained:
CCR2 = biological target: T1, CCR2 (Homo sapiens, UniProt P41597); assay: Chemotaxis assay (THP1-4x cells, migration towards 10 nM MCP-1); format: cell-based; details: inhibition of specific migration towards MCP-1
T1 construct: endogenous in cells; host or cells: THP1-4x cells
T1 sequence (P41597 1-360 isoform P41597-2): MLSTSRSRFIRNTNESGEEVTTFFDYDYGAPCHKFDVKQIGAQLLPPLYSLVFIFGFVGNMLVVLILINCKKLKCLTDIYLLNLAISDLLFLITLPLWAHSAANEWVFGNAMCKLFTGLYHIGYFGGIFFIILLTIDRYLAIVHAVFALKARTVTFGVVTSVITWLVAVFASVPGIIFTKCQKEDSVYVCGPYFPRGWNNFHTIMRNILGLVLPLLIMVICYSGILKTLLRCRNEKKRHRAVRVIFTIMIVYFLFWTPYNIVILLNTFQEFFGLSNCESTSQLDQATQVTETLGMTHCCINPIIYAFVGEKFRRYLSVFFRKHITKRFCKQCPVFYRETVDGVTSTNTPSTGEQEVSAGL
Procedure: The chemotaxis assay was performed with THP1-4x cells (Mirzadegan et al. 2000, The Journal of Biological Chemistry 275, 33, 25562-25571) similar as described earlier (Kruszynski et al. 2005, Journal of Peptide Science, in press.).
THP1-4x were cultured in RPMI1640, 2 mM L-glutamine, 0.15% Na-bicarbonat, 0.25% D-glucose, 10 mM Hepes, […] Na-pyruvate, […] β-mercaptoethanol, 10% FBS. Isolated cells were labelled in culture medium with 2.5 μg/ml calcein-AM (Molecular Probes) for 60 minutes at 37° C. Excess calcein was removed and cells were washed in D-PBS^++, 2% FBS.
Cells (1×10^5) with or without various concentrations of test compounds were loaded on the top of 8-μm polycarbonate filter in a 96-well-modified Boyden chamber (NeuroProbe). Beneath the filter 10 nM MCP-1 (R&D Systems; Roche) with or without test compounds or D-PBS^++, 2% FBS was placed in the corresponding well. The closed chambers were incubated for 1 hour at 37° C., 5% CO2. Remaining cells in the top compartment were wiped off and migrated cells were measured as fluorescence in the bottom compartment in a FLUOstar (Galaxy BMG) at 485 nm excitation and 530 nm emission. Specific migration is defined as total migration towards MCP-1 minus the background migration towards D-PBS^++, 2% FBS. The ability of test compounds to antagonize CCR2-chemotaxis is reported as concentration required to inhibit 50% of specific migration (IC50) towards MCP-1.

[1] = biological target: T2, human chemokine receptor 2 isoform B (Homo sapiens, UniProt P41597); assay: Calcium mobilization assay (FLIPR, CHOK1-CCR2B-A5 cells, 20 nM MCP-1); format: cell-based; details: Ca mobilisation assay, CCR2, antagonist activity vs 20 nM MCP-1
T2 construct: host or cells: CHOK1-CCR2B-A5 (CHO-K1)
T2 sequence (P41597 1-360 isoform P41597-2): T1 sequence (P41597 1-360 isoform P41597-2)
In short: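 FLIPR Fluo-4 calcium readout in CHO-K1 cells stably overexpressing human CCR2B; compounds first monitored 80 s for agonist activity, then after 20-30 min at 30 °C challenged with 20 nM MCP-1. Response is max minus basal fluorescence; antagonist value is concentration giving 50% inhibition of specific calcium increase.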

Compound | IC50 (CCR2) | IC50 [1]
O=C(/C=C/c1ccc(Cl)c(Cl)c1)N1CCC(=O)N(CCCN2CCCC(O)C2)CC1 (racemic) [Example 81, (+/−)-1-[(E)-3-(3,4-Dichloro-phenyl)-acryloyl]-4-[3-(3-hydroxy-piperidin-1-yl)-propyl]-[1,4]diazepan-5-one] | 71 nM | 204 nM
O=C1NC(=O)C2(CCN(CCCN3CCN(C(=O)/C=C/c4ccc(Cl)c(Cl)c4)CCC3=O)CC2)N1 [Example 48, 8-(3-{4-[(E)-3-(3,4-Dichloro-phenyl)-acryloyl]-7-oxo-[1,4]diazepan-1-yl}-propyl)-1,3,8-triaza-spiro[4.5]decane-2,4-dione] | 13 nM | 64 nM
O=C(/C=C/c1ccc(Cl)c(Cl)c1)N1CCC(=O)N(CCCN2CCC(O)(c3ccccc3)CC2)CC1 [Example 59, 1-[(E)-3-(3,4-Dichloro-phenyl)-acryloyl]-4-[3-(4-hydroxy-4-phenyl-piperidin-1-yl)-propyl]-[1,4]diazepan-5-one] | 77 nM | 14 nM
O=C(/C=C/c1ccc(Cl)c(Cl)c1)N1CCC(=O)N(CCN2CCCC2)CC1 [Example 160, 1-[(E)-3-(3,4-Dichloro-phenyl)-acryloyl]-4-(2-pyrrolidin-1-yl-ethyl)-[1,4]diazepan-5-one] | 101 nM | 232 nM
CC1(CO)CCN(CCCCN2CCN(C(=O)C=Cc3ccc(Cl)c(Cl)c3)CCC2=O)CC1O (centres unmarked) [Example 473] | – | 51 nM
C[C@@]1(CO)CCN(CCCCN2CCN(C(=O)/C=C/c3ccc(Cl)c(Cl)c3)CCC2=O)C[C@H]1O [Example 474] | – | 106 nM
O=C(/C=C/c1ccc(Cl)c(F)c1)N1CCC(=O)N(CCCN2CCC3(CC3)C(O)C2)CC1 (stereo not drawn) [Example 493, 1-[(E)-3-(4-Chloro-3-fluoro-phenyl)-acryloyl]-4-[3-((+)-4-hydroxy-6-aza-spiro[2.5]oct-6-yl)-propyl]-[1,4]diazepan-5-one] | – | 15 nM
O=C(/C=C/c1ccc(Cl)c(F)c1)N1CCC(=O)N(CCCN2CCC3(CC3)C(O)C2)CC1 (stereo not drawn) [Example 494, 1-[(E)-3-(4-Chloro-3-fluoro-phenyl)-acryloyl]-4-[3-((−)-4-hydroxy-6-aza-spiro[2.5]oct-6-yl)-propyl]-[1,4]diazepan-5-one] | – | 6 nM
O=C(/C=C/c1ccc(F)c(F)c1)N1CCC(=O)N(CCCN2CCC3(CC3)C(O)C2)CC1 (centres unmarked) [Example 495] | – | 19 nM
O=C(/C=C/c1cccc(Cl)c1)N1CCC(=O)N(CCCN2CCC3(CC3)C(O)C2)CC1 (stereo not drawn) [Example 496, 1-[(E)-3-(3-Chloro-phenyl)-acryloyl]-4-[3-((-)-4-hydroxy-6-aza-spiro[2.5]oct-6-yl)-propyl]-[1,4]diazepan-5-one] | – | 7 nM
O=C(/C=C/c1cnc(Cl)c(Cl)c1)N1CCC(=O)N(CCCN2CCC3(CC3)C(O)C2)CC1 (stereo not drawn) [Example 497, 1-[(E)-3-(5,6-Dichloro-pyridin-3-yl)-acryloyl]-4-[3-((-)-4-hydroxy-6-aza-spiro[2.5]oct-6-yl)-propyl]-[1,4]diazepan-5-one] | – | 26 nM
O=C(/C=C/c1ccc(Cl)cc1)N1CCC(=O)N(CCCN2CCC3(CC3)C(O)C2)CC1 (centres unmarked) [Example 498] | – | 11 nM
CC1(C)CCN(C[C@H](O)CCN2CCN(C(=O)/C=C/c3ccc(F)c(Cl)c3)CCC2=O)CC1O (some centres unmarked) [Example 500] | – | 451 nM
CC1(C)CCN(C[C@H](O)CCN2CCN(C(=O)/C=C/c3ccc(Cl)c(Cl)c3)CCC2=O)CC1O (some centres unmarked) [Example 501] | – | 155 nM
C[C@@H]1C[C@H](O)CN(C[C@H](O)CCN2CCN(C(=O)/C=C/c3ccc(F)c(Cl)c3)CCC2=O)C1 [Example 502] | – | 253 nM
C[C@@H]1C[C@H](O)CN(C[C@H](O)CCN2CCN(C(=O)/C=C/c3ccc(Cl)c(Cl)c3)CCC2=O)C1 [Example 503] | – | 51 nM
(rac)-1-[(E)-3-(3,4-Dichloro-phenyl)-acryloyl]-4-[2-hydroxy-3-(2-hydroxy-2-hydroxymethyl-piperidin-1-yl)-propyl]-[1,4]diazepan-5-one [Example 307] | – | 437 nM
(rac)-1-[(E)-3-(3,4-Dichloro-phenyl)-acryloyl]-4-[4-(3-hydroxy-5-methoxymethyl-piperidin-1-yl)-butyl]-[1,4]diazepan-5-one [Example 490] | – | 26 nM
(rac)-N-[1-(4-{4-[(E)-3-(3,4-Dichloro-phenyl)-acryloyl]-7-oxo-[1,4]diazepan-1-yl}-butyl)-piperidin-3-yl]-acetamide [Example 463] | – | 348 nM

Reference: patent US7632829B2, “Diazepan derivatives” (Hoffmann-La Roche Inc., priority 2006, dated 2009)
